These results are taken from article PMC4505086, “Azobenzene-based inhibitors of human carbonic anhydrase II” (Beilstein Journal of Organic Chemistry, 2015).

For orientation: Ki means a measure of affinity in units of concentration, obtained from inhibition or displacement. For orientation: IC50 means the point on the concentration scale where inhibition reaches its midpoint. A high value points to lower potency.

For the assay, the target named is T1, human carbonic anhydrase II (hCAII) (Homo sapiens, UniProt P00918).
T1 construct: made in house
Put plainly: colorimetric endpoint measurement of hCAII-catalyzed pNPA hydrolysis. Particulars: for Ki: calculated from IC50 by Cheng–Prusoff equation, Km = 1092.5 µM for pNPA, [S] = 5.0 mM; for IC50: wild-type hCAII 500 nM, pNPA 5 mM, 50 mM Tris pH 7.4, 20–30 min in the dark, absorbance at 400 nm. It is filed as biochemical. The text has this:
In order to determine the half-maximal inhibitory concentrations (IC50) and the inhibitory constants (Ki) towards hCAII for our library, we used a colorimetric endpoint measurement of the catalyzed pNPA hydrolysis (Figure 1a). Usually, a dansyl competition assay is employed for this purpose. However, as this assay is fluorescence-based and azobenzenes can quench fluorescence, this might cause a distortion in the obtained data. Furthermore, irradiation with UV light (i.e., λ = 280 nm for tryptophan excitation) can result in azobenzene-cis-isomerization, which could lead to different binding characteristics. Therefore, we aimed at the endpoint absorbance system described herein.
5. hCAII purification, crystallization and assay
5.1. Purification and crystallization
Wild-type human Carbonic Anhydrase II (hCAII) was expressed and purified as […]
previously reported. […]
5.2. Determination of half-maximal inhibitory concentration (IC50)
Approximately 1.0 mg of hCAII was dissolved in 100 µL of 50 mM Tris (pH 7.4) and diluted to a final concentration of 500 nM (concentration was determined in duplicates by absorbance spectroscopy) and mixed with the appropriate amount of blocker. The enzyme-blocker solution was then pipetted into a 96-well plate (white, clear flat bottom) containing pNPA for a final concentration of 5 mM. This was added simultaneously with a multi-well-pipette. After 20–30 min of incubation in the dark, the absorbance was measured using a plate reader at λ = 400 nm. Obtained data was background substracted and divided by data points of non-inhibited hCAII in order to obtain relative activity. The data points were fitted sigmoidal (eq. 1) or using the Hill equation (eq. 2) using IgorPro […]
All experiments were performed at least in triplicates. […]
y = base + [max / (1 + exp[(xhalf – x)/rate)]] (eq. 1) y = base + (max – base)/(1 + (xhalf / x)rate) (eq. 2)
5.3. Determination of inhibitory constants (Ki)
Inhibitory constants were determined using the Cheng–Prussow equation (eq. 3) with the obtained half-maximal inibitory constants (IC50) and with substrate concentration [S]
The Michaelis–Menten constant Km was obtained for this assay system independently and […]

With `CCOC(=O)c1ccc(/N=N/c2ccc(S(N)(=O)=O)cc2)cc1` [1i, (E)-Ethyl 4-((4-sulfamoylphenyl)diazenyl)benzoate], the Ki was 30.1 nM and the IC50 was 168 nM.
As to `NS(=O)(=O)c1ccc(/N=N/c2ccc(N3CCOCC3)cc2)cc1` [1c], the inhibition constant Ki is 55.4 nM and half-maximal inhibition (IC50) required 309 nM.
On the same counts, the results for `NS(=O)(=O)c1ccc(/N=N/c2ccc([N+](=O)[O-])cc2)cc1` [1g] are 28.6 nM and 159 nM.
On the same counts, the results for `NS(=O)(=O)c1ccc(/N=N/c2ccc(O)cc2)cc1` [1a] are 29.7 nM and 166 nM.
On the same counts, the results for `[N-]=[N+]=Nc1ccc(/N=N/c2ccc(S(N)(=O)=O)cc2)cc1` [1e] are 46.1 nM and 257 nM.
In the case of `Cc1ccc(/N=N/c2ccc(S(N)(=O)=O)cc2)cc1` [1f], the Ki was 65.1 nM and the IC50 was 363 nM.
Take `CCN(CC)c1ccc(/N=N/c2ccc(S(N)(=O)=O)cc2)cc1` [1b]: the Ki was 25 nM and the IC50 came to 140 nM.
The matching figures for `NS(=O)(=O)c1ccc(/N=N/c2ccccc2)cc1` [1h]: 44.8 nM and 250 nM.
